Reference: article PMC12543283, “TastepepAI: An artificial intelligence platform for taste peptide de novo design” (PLOS Computational Biology, 2025)
Values joined by “and” are separate entries in the source; they are usually repeats but may differ in a detail not shown here. Identical values can stand only once. Ends that are not written are not given here.

Experiments:
[1] = system: human pancreatic ductal epithelial cells (HPNE)
[2] = Electronic tongue analysis (Taste-Sensing System SA 402B); parameters: unit not given here; conditions: reference solution 30 mM KCl + 0.3 mM tartaric acid as baseline, first measurement excluded; for Umami: sensor AAE; for Umami / Bitter / Sweet: detection threshold 0, room temperature; for Umami / Bitter / Sour / Salty: four replicates; for Sour: detection threshold -13, room temperature; for Salty: detection threshold -6, room temperature; for Sweet: measured five times
Method: Taste characteristics were analyzed using the electronic tongue system E-tongue (Taste-Sensing System SA 402B, Intelligent Sensor Technology Co. Ltd., Japan). The system was equipped with five specific sensor probes for detecting sourness (CA0), saltiness (CT0), bitterness (C00), sweetness (GL1), and umami (AAE). Samples were tested at concentrations of 0.1 mg/mL and 1.0 mg/mL. Prior to experiments, sensors were activated by immersion in a reference solution (30 mM KCl and 0.3 mM tartaric acid) for 24 h. A 30 min self-diagnostic procedure was performed before each measurement to ensure data accuracy. The reference solution served both as a cleaning solution and standard solution for taste signal calibration. According to the manufacturer’s instructions, using the reference solution as baseline, the detection thresholds were set at −13 for sourness, −6 for saltiness, and 0 for other taste modalities. Two cleaning solutions were employed for electrode maintenance: (1) 30% ethanol solution containing 100 mM HCl for negative charge reference electrodes, and (2) 30% ethanol solution containing 100 mM KCl and 10 mM KOH for positive charge reference electrodes. All taste measurements were performed at room temperature with four replicates, except for sweetness which was measured five times. The first measurement data were excluded from analysis.

[3] = system: human embryonic kidney cells (HEK293T)
[4] = system: human umbilical vein endothelial cells (HUVEC)
[5] = system: human bronchial epithelial cells (BEAS-2B)

IAVPHEP [TaPep47]
Average cell viability, HPNE [1]: 99.80
Cell viability, HPNE, Data1 [1]: 107.02
Cell viability, HPNE, Data2 [1]: 87.25
Cell viability, HPNE, Data3 [1]: 105.12
Umami ([2]; peptide 0.1 mg/mL): 2.32
Umami ([2]; peptide 1 mg/mL): -4.54
Bitter ([2]; sensor C00, peptide 0.1 mg/mL): 8.00
Bitter ([2]; sensor C00, peptide 1 mg/mL): 3.37
Sour ([2]; sensor CA0, peptide 0.1 mg/mL): -4.89
Sour ([2]; sensor CA0, peptide 1 mg/mL): 10.97
Salty ([2]; sensor CT0, peptide 0.1 mg/mL): -19.15
Salty ([2]; sensor CT0, peptide 1 mg/mL): 9.73
Sweet ([2]; sensor GL1, peptide 0.1 mg/mL): 6.95
Sweet ([2]; sensor GL1, peptide 1 mg/mL): -5.60
Average cell viability, HEK293T [3]: 100.09
Cell viability, HEK293T, Data1 [3]: 104.67
Cell viability, HEK293T, Data2 [3]: 100.41
Cell viability, HEK293T, Data3 [3]: 95.21
Average cell viability, HUVEC [4]: 101.12
Cell viability, HUVEC, Data1 [4]: 101.62
Cell viability, HUVEC, Data2 [4]: 112.48
Cell viability, HUVEC, Data3 [4]: 89.25
Average cell viability, BEAS-2B [5]: 106.38
Cell viability, BEAS-2B, Data1 [5]: 109.97
Cell viability, BEAS-2B, Data2 [5]: 99.00
Cell viability, BEAS-2B, Data3 [5]: 110.17

SEGIQ [TaPep70]
Average cell viability, HPNE [1]: 105.19
Cell viability, HPNE, Data1 [1]: 112.61
Cell viability, HPNE, Data2 [1]: 102.83
Cell viability, HPNE, Data3 [1]: 100.13
Umami ([2]; peptide 0.1 mg/mL): 1.63
Umami ([2]; peptide 1 mg/mL): -4.00
Bitter ([2]; sensor C00, peptide 0.1 mg/mL): 7.38
Bitter ([2]; sensor C00, peptide 1 mg/mL): 3.77
Sour ([2]; sensor CA0, peptide 0.1 mg/mL): -3.33
Sour ([2]; sensor CA0, peptide 1 mg/mL): 10.04
Salty ([2]; sensor CT0, peptide 0.1 mg/mL): -20.29
Salty ([2]; sensor CT0, peptide 1 mg/mL): 7.83
Sweet ([2]; sensor GL1, peptide 0.1 mg/mL): 6.55
Sweet ([2]; sensor GL1, peptide 1 mg/mL): -3.62
Average cell viability, HEK293T [3]: 99.37
Cell viability, HEK293T, Data1 [3]: 100.88
Cell viability, HEK293T, Data2 [3]: 96.25
Cell viability, HEK293T, Data3 [3]: 100.98
Average cell viability, HUVEC [4]: 107.56
Cell viability, HUVEC, Data1 [4]: 113.68
Cell viability, HUVEC, Data2 [4]: 110.32
Cell viability, HUVEC, Data3 [4]: 98.67
Average cell viability, BEAS-2B [5]: 104.32
Cell viability, BEAS-2B, Data1 [5]: 109.87
Cell viability, BEAS-2B, Data2 [5]: 102.79
Cell viability, BEAS-2B, Data3 [5]: 100.30

SKKEV [TaPep65]
Average cell viability, HPNE [1]: 94.98
Cell viability, HPNE, Data1 [1]: 94.04
Cell viability, HPNE, Data2 [1]: 105.12
Cell viability, HPNE, Data3 [1]: 85.76
Umami ([2]; peptide 0.1 mg/mL): 1.85
Umami ([2]; peptide 1 mg/mL): -4.04
Bitter ([2]; sensor C00, peptide 0.1 mg/mL): 7.27
Bitter ([2]; sensor C00, peptide 1 mg/mL): 4.02
Sour ([2]; sensor CA0, peptide 0.1 mg/mL): -3.95
Sour ([2]; sensor CA0, peptide 1 mg/mL): 10.48
Salty ([2]; sensor CT0, peptide 0.1 mg/mL): -17.33
Salty ([2]; sensor CT0, peptide 1 mg/mL): 11.34
Sweet ([2]; sensor GL1, peptide 0.1 mg/mL): 2.66
Sweet ([2]; sensor GL1, peptide 1 mg/mL): -3.79
Average cell viability, HEK293T [3]: 97.48
Cell viability, HEK293T, Data1 [3]: 94.54
Cell viability, HEK293T, Data2 [3]: 99.27
Cell viability, HEK293T, Data3 [3]: 98.61
Average cell viability, HUVEC [4]: 96.89
Cell viability, HUVEC, Data1 [4]: 105.14
Cell viability, HUVEC, Data2 [4]: 94.76
Cell viability, HUVEC, Data3 [4]: 90.77
Average cell viability, BEAS-2B [5]: 100.70
Cell viability, BEAS-2B, Data1 [5]: 99.80
Cell viability, BEAS-2B, Data2 [5]: 89.83
Cell viability, BEAS-2B, Data3 [5]: 112.46

SAANT [TaPep31]
Average cell viability, HPNE [1]: 100.40
Cell viability, HPNE, Data1 [1]: 105.82
Cell viability, HPNE, Data2 [1]: 112.81
Cell viability, HPNE, Data3 [1]: 82.56
Umami ([2]; peptide 0.1 mg/mL): 1.69
Umami ([2]; peptide 1 mg/mL): -4.82
Bitter ([2]; sensor C00, peptide 0.1 mg/mL): 7.84
Bitter ([2]; sensor C00, peptide 1 mg/mL): 2.76
Sour ([2]; sensor CA0, peptide 0.1 mg/mL): -3.49
Sour ([2]; sensor CA0, peptide 1 mg/mL): 12.70
Salty ([2]; sensor CT0, peptide 0.1 mg/mL): -19.57
Salty ([2]; sensor CT0, peptide 1 mg/mL): 12.57
Sweet ([2]; sensor GL1, peptide 0.1 mg/mL): 8.41
Sweet ([2]; sensor GL1, peptide 1 mg/mL): -5.90
Average cell viability, HEK293T [3]: 99.34
Cell viability, HEK293T, Data1 [3]: 102.02
Cell viability, HEK293T, Data2 [3]: 100.41
Cell viability, HEK293T, Data3 [3]: 95.58
Average cell viability, HUVEC [4]: 99.39
Cell viability, HUVEC, Data1 [4]: 91.56
Cell viability, HUVEC, Data2 [4]: 100.67
Cell viability, HUVEC, Data3 [4]: 105.93
Average cell viability, BEAS-2B [5]: 110.70
Cell viability, BEAS-2B, Data1 [5]: 118.64
Cell viability, BEAS-2B, Data2 [5]: 100.10
Cell viability, BEAS-2B, Data3 [5]: 113.36

NGDDEEG [TaPep7]
Average cell viability, HPNE [1]: 99.30
Cell viability, HPNE, Data1 [1]: 92.35
Cell viability, HPNE, Data2 [1]: 93.04
Cell viability, HPNE, Data3 [1]: 112.51
Umami ([2]; peptide 0.1 mg/mL): 1.28
Umami ([2]; peptide 1 mg/mL): -5.11
Bitter ([2]; sensor C00, peptide 0.1 mg/mL): 7.41
Bitter ([2]; sensor C00, peptide 1 mg/mL): bitterness suppression and -0.45
Sour ([2]; sensor CA0, peptide 0.1 mg/mL): -2.86
Sour ([2]; sensor CA0, peptide 1 mg/mL): 11.92
Salty ([2]; sensor CT0, peptide 0.1 mg/mL): -21.22
Salty ([2]; sensor CT0, peptide 1 mg/mL): 9.19
Sweet ([2]; sensor GL1, peptide 0.1 mg/mL): 6.98
Sweet ([2]; sensor GL1, peptide 1 mg/mL): -6.18
Average cell viability, HEK293T [3]: 95.11
Cell viability, HEK293T, Data1 [3]: 96.15
Cell viability, HEK293T, Data2 [3]: 94.73
Cell viability, HEK293T, Data3 [3]: 94.45
Average cell viability, HUVEC [4]: 105.24
Cell viability, HUVEC, Data1 [4]: 113.68
Cell viability, HUVEC, Data2 [4]: 110.16
Cell viability, HUVEC, Data3 [4]: 91.88
Average cell viability, BEAS-2B [5]: 102.56
Cell viability, BEAS-2B, Data1 [5]: 94.72
Cell viability, BEAS-2B, Data2 [5]: 111.17
Cell viability, BEAS-2B, Data3 [5]: 101.79

YDGTPLN [TaPep11]
Average cell viability, HPNE [1]: 100.63
Cell viability, HPNE, Data1 [1]: 98.34
Cell viability, HPNE, Data2 [1]: 113.51
Cell viability, HPNE, Data3 [1]: 90.05
Umami ([2]; peptide 0.1 mg/mL): 2.75
Umami ([2]; peptide 1 mg/mL): -2.91
Bitter ([2]; sensor C00, peptide 0.1 mg/mL): 7.10
Bitter ([2]; sensor C00, peptide 1 mg/mL): 3.24
Sour ([2]; sensor CA0, peptide 0.1 mg/mL): -5.95
Sour ([2]; sensor CA0, peptide 1 mg/mL): 9.08
Salty ([2]; sensor CT0, peptide 0.1 mg/mL): -21.79
Salty ([2]; sensor CT0, peptide 1 mg/mL): 6.18
Sweet ([2]; sensor GL1, peptide 0.1 mg/mL): 9.69
Sweet ([2]; sensor GL1, peptide 1 mg/mL): -5.23
Average cell viability, HEK293T [3]: 102.37
Cell viability, HEK293T, Data1 [3]: 107.03
Cell viability, HEK293T, Data2 [3]: 95.68
Cell viability, HEK293T, Data3 [3]: 104.38
Average cell viability, HUVEC [4]: 112.96
Cell viability, HUVEC, Data1 [4]: 111.12
Cell viability, HUVEC, Data2 [4]: 113.36
Cell viability, HUVEC, Data3 [4]: 114.40
Average cell viability, BEAS-2B [5]: 102.96
Cell viability, BEAS-2B, Data1 [5]: 102.59
Cell viability, BEAS-2B, Data2 [5]: 99.80
Cell viability, BEAS-2B, Data3 [5]: 106.48
